The text below walks through data of US7855183B2, “Methods of treatment of a bcl-2 disorder using bcl-2 antisense oligomers” (Genta Incorporated, priority 2000, dated 2010).

The subject of experiment [1] is LCLs (EBV-associated lymphoproliferative disease). The experiment can be described thus: Survival in the human-SCID model of PTLD. It counts as in vivo, mice. Conditions: for median survival: VP16 15 mg/kg ip q3dx4, G3139 10 mg/kg/d over 12 d ip, rituximab 20 mg/kg ip wklyx4, start 15 days after 20 million LCLs ip, untreated 50 days; for animals remaining tumor-free: monotherapy groups, stated jointly. From the text:
(§1) The use of the targeted therapies, G3139 ([…], Genta, Inc.) and rituximab, to enhance chemosensitivity in EBV-associated lymphoproliferative disease (LPD) have been explored. EBV+LPDs such as post-transplant lymphoproliferative disorder (PTLD) and AIDS-related lymphoma (ARL) typically express bcl-2 and CD20. […] To determine whether these targeted therapies enhance chemosensitivity in EBV+LPD, the effects of cytotoxic drugs in combination with G3139 or rituximab on proliferation and apoptosis in LCLs were examined. […] To determine whether G3139 or rituximab enhanced the anti-tumor activity of chemotherapy in vivo, the effects of VP16 (15 mg/kg ip q3d×4); G3139 (10 mg/kg/d over 12 d ip q3d) or rituximab (20 mg/kg ip wkly×4); and VP16+G3139 or VP16+rituximab (same doses) on survival in the human-SCID model of PTLD were compared. Treatment was started 15 days after ip injection of 20 million LCLs.

Experiment [2] concerns LCLs (lymphoblastoid cells). In words: Proliferation and apoptosis in LCLs with cytotoxic drugs plus G3139 or rituximab. It counts as cell-based.
Source text: as §1

Turning to `COc1cc([C@@H]2c3cc4c(cc3[C@@H](O[C@@H]3O[C@@H]5CO[C@@H](C)O[C@H]5[C@H](O)[C@H]3O)[C@H]3COC(=O)[C@H]23)OCO4)cc(OC)c1O` [VP16, etoposide], in experiment [1], the median survival is given as 86 days and the animals remaining tumor-free came to 7%.
On to “rituximab: targeted therapy; EBV+LPDs typically express bcl-2 and CD20”, for which the “effect in combination with chemotherapy” value in experiment [2] is recorded as “augmented the effects of chemotherapy”. Further, in experiment [2] (alone), the effect on apoptosis entry was “no effect” and the effect on proliferation entry is “minimal”. In experiment [1], the median survival was 88 days and the animals remaining tumor-free is reported as 7%.
